Molecules are shown by their SMILES.

The target of this assay is T1, human A2a receptor (Homo sapiens, UniProt P29274).
T1 construct: purchased Perkin-Elmer RBHA2AM400UA; host or cells: HEK293 cells (membranes)
T1 sequence (P29274 whole entry): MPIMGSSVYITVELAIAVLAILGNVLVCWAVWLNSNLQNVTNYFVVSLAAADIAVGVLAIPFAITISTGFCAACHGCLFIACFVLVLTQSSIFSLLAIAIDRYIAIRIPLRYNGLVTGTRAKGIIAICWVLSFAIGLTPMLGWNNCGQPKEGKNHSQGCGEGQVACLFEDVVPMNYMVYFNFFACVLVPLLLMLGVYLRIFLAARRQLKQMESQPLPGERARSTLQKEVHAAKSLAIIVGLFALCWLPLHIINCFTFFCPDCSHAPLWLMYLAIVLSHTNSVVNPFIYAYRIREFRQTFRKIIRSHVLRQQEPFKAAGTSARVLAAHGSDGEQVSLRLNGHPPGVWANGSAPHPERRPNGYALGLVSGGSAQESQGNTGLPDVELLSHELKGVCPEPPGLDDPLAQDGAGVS
The experiment in a line: A2a competition binding assay, Scintillation Proximity technology. Particulars: membranes from HEK293 cells expressing human A2a receptor; Ki by Cheng-Prusoff equation. The procedure, abridged: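 SPA competition: 0.5 nM tritiated pyrazolotriazolopyrimidine ligand displaced by compound at 3000 to 0.15 nM, 1 h room temperature, human A2a HEK293 membranes pretreated with adenosine deaminase, PBS/10 mM MgCl2 buffer. CGS15943 1 μM defined non-specific binding; EC50 converted to Ki via Cheng-Prusoff.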
Regarding `Cc1cnn(-c2nc(N)c(C(=O)NCc3cnn4ccccc34)nc2Cl)c1` [Ex-362, 3-amino-6-chloro-5-(4-methyl-1H-pyrazol-1-yl)-N-(pyrazolo[1,5-a]pyridin-3-ylmethyl)pyrazine-2-carboxamide], the Ki was 143 nM.
The result for `Cc1cnn(-c2nc(N)c(C(=O)NCc3cccc4c3C(=O)NC4)nc2Cl)c1` [Ex-363, 3-amino-6-chloro-5-(4-methyl-1H-pyrazol-1-yl)-N-[(3-oxo-2,3-dihydro-1H-isoindol-4-yl)methyl]pyrazine-2-carboxamide] reads 0.5 nM.
The compound `Cc1cccnc1CNC(=O)c1nc(C)c(-c2nc(C(F)(F)F)co2)nc1N` [Ex-379, 3-amino-6-methyl-N-[(3-methylpyridin-2-yl)methyl]-5-[4-(trifluoromethyl)-1,3-oxazol-2-yl]pyrazine-2-carboxamide] gave a Ki of 1490 nM.
The result for `Cc1coc(-c2nc(N)c(C(=O)NCc3ncccc3C)nc2C)n1` [Ex-380, 3-amino-6-methyl-5-(4-methyl-1,3-oxazol-2-yl)-N-[(3-methylpyridin-2-yl)methyl]pyrazine-2-carboxamide] reads 0.384 nM; that for `Cc1cccnc1CNC(=O)c1nc(C)c(-c2nc(C)c(C)o2)nc1N` [Ex-381, 3-amino-5-(4,5-dimethyl-1,3-oxazol-2-yl)-6-methyl-N-[(3-methylpyridin-2-yl)methyl]pyrazine-2-carboxamide], 80.5 nM; that for `COCc1coc(-c2nc(N)c(C(=O)NCc3ncccc3C)nc2C)n1` [Ex-382, 3-amino-5-[4-(methoxymethyl)-1,3-oxazol-2-yl]-6-methyl-N-[(3-methylpyridin-2-yl)methyl]pyrazine-2-carboxamide], 38.4 nM.
The result for `Cc1cnc(-c2nc(N)c(C(=O)NCc3ncccc3C)nc2C)o1` [Ex-383, 3-amino-6-methyl-5-(5-methyl-1,3-oxazol-2-yl)-N-[(3-methylpyridin-2-yl)methyl]pyrazine-2-carboxamide] reads 6.4 nM; that for `Cc1cccnc1CNC(=O)c1nc(C)c(-c2ncc(C(F)(F)F)o2)nc1N` [Ex-384, 3-amino-6-methyl-N-[(3-methylpyridin-2-yl)methyl]-5-[5-(trifluoromethyl)-1,3-oxazol-2-yl]pyrazine-2-carboxamide], 63.7 nM; that for `N#Cc1nc(C(=O)NCc2cccc3cccnc23)c(N)nc1-n1cccn1` [Ex-385, 3-amino-6-cyano-5-(1H-pyrazol-1-yl)-N-(quinolin-8-ylmethyl)pyrazine-2-carboxamide], 0.6 nM.
As for `N#Cc1nc(C(=O)NCc2ncccc2C(F)(F)F)c(N)nc1-c1ncco1` [Ex-386, 3-amino-6-cyano-5-(1,3-oxazol-2-yl)-N-{[3-(trifluoromethyl)pyridin-2-yl]methyl}pyrazine-2-carboxamide], the affinity, expressed as Ki, was 0.3 nM.
`Cc1cnn(-c2nc(N)c(C(=O)NCc3cccc4cccnc34)nc2C(F)F)c1` [Ex-387, 3-amino-6-(difluoromethyl)-5-(4-methyl-1H-pyrazol-1-yl)-N-(quinolin-8-ylmethyl)pyrazine-2-carboxamide] returned a Ki of 2.8 nM.
Under `Nc1nc(-n2nccn2)c(CO)nc1C(=O)NCc1cccc2cccnc12` [Ex-388, 3-amino-6-(hydroxymethyl)-N-(quinolin-8-ylmethyl)-5-(2H-1,2,3-triazol-2-yl)pyrazine-2-carboxamide] stands 2.5 nM.

(Values after patent publication US10472347B2, “Aminopyrazine compounds with A2A antagonist properties” (Merck Sharp & Dohme Corp., priority 2014, dated 2019).)
